Laboratory results reported in the NIST ThermoML archive (doi:10.1021/acs.jced.8b00358).

How the values were obtained:
[1] = 83 kPa, Liquid; for speed of sound: Frequency=3 MHz, Single path-length method; for mass density: Vibrating tube method
[2] = molar heat capacity at constant pressure; conditions: 83 kPa, Liquid, DSC

CCCCC(=O)OCC(COC(=O)CCCC)(COC(=O)CCCC)COC(=O)CCCC [pentaerythritol tetrapentanoate]
Conditions | mass density [kg/m3] | molar heat capacity at constant pressure [J/K/mol] | speed of sound [m/s]
[1], 278.15 K | 1030.29 | – | 1417.7
[1], 283.15 K | 1026.21 | – | 1400.3
[1], 288.15 K | 1022.14 | – | 1383.2
[1], 293.15 K | 1018.08 | – | 1366.2
[1], 298.15 K | 1014.04 | – | 1349.3
[1], 303.15 K | 1010 | – | 1332.7
[1], 308.15 K | 1005.97 | – | 1316.2
[1], 313.15 K | 1001.94 | – | 1299.8
[1], 318.15 K | 997.92 | – | 1283.6
[1], 323.15 K | 993.9 | – | 1267.6
[1], 328.15 K | 989.89 | – | 1251.8
[1], 333.15 K | 985.88 | – | 1236.1
[1], 338.15 K | 981.88 | – | 1220.5
[1], 343.15 K | 977.88 | – | 1205.2
[2], 263.14 K | – | 805.33 | –
[2], 264.15 K | – | 806.28 | –
[2], 265.15 K | – | 807.22 | –
[2], 266.14 K | – | 808.17 | –
[2], 267.14 K | – | 809.11 | –
[2], 268.15 K | – | 809.58 | –
[2], 269.14 K | – | 810.53 | –
[2], 270.14 K | – | 811.47 | –
[2], 271.15 K | – | 812.42 | –
[2], 272.14 K | – | 813.37 | –
[2], 273.14 K | – | 814.78 | –
[2], 274.14 K | – | 815.73 | –
[2], 275.15 K | – | 816.67 | –
[2], 276.14 K | – | 817.62 | –
[2], 277.14 K | – | 819.04 | –
[2], 278.15 K | – | 819.98 | –
[2], 279.15 K | – | 820.93 | –
[2], 280.15 K | – | 821.87 | –
[2], 281.14 K | – | 822.82 | –
[2], 282.15 K | – | 823.76 | –
[2], 283.15 K | – | 824.71 | –
[2], 284.15 K | – | 825.65 | –
[2], 285.15 K | – | 827.07 | –
[2], 286.14 K | – | 828.02 | –
[2], 287.14 K | – | 828.96 | –
[2], 288.15 K | – | 829.91 | –
[2], 289.15 K | – | 831.32 | –
[2], 290.14 K | – | 832.27 | –
[2], 291.14 K | – | 833.69 | –
[2], 292.14 K | – | 835.11 | –
[2], 293.14 K | – | 836.05 | –
[2], 294.15 K | – | 837.47 | –
[2], 295.14 K | – | 838.89 | –
[2], 296.15 K | – | 839.83 | –
[2], 297.14 K | – | 841.25 | –
[2], 298.14 K | – | 842.67 | –
[2], 299.15 K | – | 843.61 | –
[2], 300.14 K | – | 845.03 | –
[2], 301.15 K | – | 846.45 | –
[2], 302.14 K | – | 847.39 | –
[2], 303.15 K | – | 848.81 | –
[2], 304.15 K | – | 850.23 | –
[2], 305.14 K | – | 851.17 | –
[2], 306.15 K | – | 852.12 | –
[2], 307.15 K | – | 853.54 | –
[2], 308.14 K | – | 854.48 | –
[2], 309.14 K | – | 855.9 | –
[2], 310.15 K | – | 857.32 | –
[2], 311.15 K | – | 858.26 | –
[2], 312.14 K | – | 859.68 | –
[2], 313.15 K | – | 860.63 | –
[2], 314.14 K | – | 862.04 | –
[2], 315.15 K | – | 863.46 | –
[2], 316.14 K | – | 864.41 | –
[2], 317.15 K | – | 865.83 | –
[2], 318.15 K | – | 866.77 | –
[2], 319.14 K | – | 868.19 | –
[2], 320.15 K | – | 869.61 | –
[2], 321.15 K | – | 870.55 | –
[2], 322.14 K | – | 871.97 | –
[2], 323.14 K | – | 873.39 | –
[2], 324.15 K | – | 874.33 | –
[2], 325.14 K | – | 875.75 | –
[2], 326.15 K | – | 876.7 | –
[2], 327.15 K | – | 878.11 | –
[2], 328.15 K | – | 879.53 | –
[2], 329.14 K | – | 880.48 | –
[2], 330.15 K | – | 881.89 | –
[2], 331.15 K | – | 883.31 | –
[2], 332.14 K | – | 884.26 | –
[2], 333.14 K | – | 885.68 | –
[2], 334.15 K | – | 887.09 | –
[2], 335.14 K | – | 888.51 | –
[2], 336.14 K | – | 889.93 | –
[2], 337.14 K | – | 891.35 | –
[2], 338.14 K | – | 892.29 | –
[2], 339.15 K | – | 893.71 | –
[2], 340.14 K | – | 895.13 | –
[2], 341.14 K | – | 896.07 | –
[2], 342.15 K | – | 897.02 | –
[2], 343.14 K | – | 898.44 | –
[2], 344.15 K | – | 899.38 | –
[2], 345.15 K | – | 900.8 | –
[2], 346.15 K | – | 902.22 | –
[2], 347.14 K | – | 903.16 | –
[2], 348.14 K | – | 904.58 | –
[2], 349.15 K | – | 906 | –
[2], 350.14 K | – | 907.42 | –
[2], 351.14 K | – | 908.36 | –
[2], 352.14 K | – | 909.78 | –
[2], 353.14 K | – | 911.2 | –
[2], 354.15 K | – | 912.61 | –
[2], 355.14 K | – | 913.56 | –
[2], 356.15 K | – | 914.98 | –
[2], 357.15 K | – | 916.39 | –
[2], 358.14 K | – | 917.81 | –
[2], 359.15 K | – | 918.76 | –
[2], 360.15 K | – | 920.18 | –
[2], 361.14 K | – | 921.59 | –
[2], 362.15 K | – | 922.54 | –
[2], 363.15 K | – | 923.96 | –
[2], 364.14 K | – | 925.37 | –
[2], 365.14 K | – | 926.79 | –
[2], 366.15 K | – | 927.74 | –
[2], 367.14 K | – | 929.16 | –
[2], 368.14 K | – | 930.57 | –
[2], 369.14 K | – | 931.99 | –
[2], 370.14 K | – | 933.41 | –
[2], 371.15 K | – | 934.35 | –
[2], 372.14 K | – | 935.77 | –
[2], 373.14 K | – | 937.19 | –
[2], 374.15 K | – | 938.61 | –
[2], 375.14 K | – | 939.55 | –
[2], 376.14 K | – | 940.97 | –
[2], 377.14 K | – | 942.39 | –
[2], 378.15 K | – | 943.81 | –
[2], 379.15 K | – | 944.75 | –
[2], 380.14 K | – | 946.17 | –
[2], 381.15 K | – | 947.59 | –
[2], 382.14 K | – | 949.01 | –
[2], 383.14 K | – | 950.42 | –
[2], 384.14 K | – | 951.84 | –
[2], 385.15 K | – | 952.79 | –
[2], 386.14 K | – | 954.2 | –
[2], 387.14 K | – | 955.62 | –
[2], 388.15 K | – | 957.04 | –
[2], 389.15 K | – | 957.98 | –
[2], 390.14 K | – | 959.4 | –
[2], 391.15 K | – | 960.82 | –
[2], 392.15 K | – | 961.77 | –
[2], 393.15 K | – | 963.18 | –
[2], 394.15 K | – | 964.13 | –
[2], 395.15 K | – | 965.55 | –
[2], 396.14 K | – | 966.96 | –
[2], 397.14 K | – | 968.38 | –
[2], 398.14 K | – | 969.8 | –
[2], 399.14 K | – | 971.22 | –
[2], 400.15 K | – | 972.16 | –
[2], 401.14 K | – | 973.58 | –
[2], 402.14 K | – | 975 | –
[2], 403.15 K | – | 975.94 | –
[2], 404.15 K | – | 977.36 | –
[2], 405.14 K | – | 978.78 | –
[2], 406.15 K | – | 979.72 | –
[2], 407.14 K | – | 981.14 | –
[2], 408.14 K | – | 982.56 | –
[2], 409.14 K | – | 983.51 | –
[2], 410.15 K | – | 984.92 | –
[2], 411.15 K | – | 986.34 | –
[2], 412.14 K | – | 987.76 | –
[2], 413.15 K | – | 988.7 | –
[2], 414.15 K | – | 990.12 | –
[2], 415.15 K | – | 991.54 | –
[2], 416.14 K | – | 992.96 | –
[2], 417.15 K | – | 993.9 | –
[2], 418.15 K | – | 995.32 | –
[2], 419.15 K | – | 996.27 | –
[2], 420.14 K | – | 997.68 | –
[2], 421.15 K | – | 999.1 | –
[2], 422.15 K | – | 1000 | –
[2], 423.15 K | – | 1001.5 | –
[2], 424.14 K | – | 1002.9 | –
[2], 425.15 K | – | 1004.3 | –
[2], 426.15 K | – | 1005.2 | –
[2], 427.14 K | – | 1006.7 | –
[2], 428.15 K | – | 1008.1 | –
[2], 429.15 K | – | 1009 | –
[2], 430.14 K | – | 1010.4 | –
[2], 431.15 K | – | 1011.4 | –
[2], 432.15 K | – | 1012.8 | –
